Three compounds from patent US11241417B2, “Compositions and methods for the treatment and prevention of neurological disorders” (Yumanity Therapeutics, Inc., priority 2018, dated 2022) can be followed below.

“Also recorded” adds a separate entry of the source.

Assay type in all cases: cell-based
The subject of assay [1] is primary rat cortical neurons transfected with wild-type TDP-43. The assay is described as follows: Survival of primary rat cortical neurons transfected with wild-type TDP-43. The following applies: rat primary cortical neurons co-transfected with RFP and wild-type human TDP-43; titration of compound; cox regression. How it is done:
(§1) Rat primary cortical neurons were co-transfected with a red fluorescent protein (RFP) as a morphological marker and either control (empty vector) or wild-type TDP-43 expression plasmids and treated with vehicle (DMSO) or a titration of compound (3). (FIG. 3A) Risk of neuron death plots. The lifetime of each neuron was determined by either loss of RFP signal or morphological indicators of death such as loss of neurites and cell blebbing and used to generate cumulative hazard plots of risk of death over time (hrs) post-transfection. (FIG. 3B) Forest plots. Hazard ratios for each treatment group (relative to TDP-43 DMSO group) were determined by cox regression analysis and used to generate forest plots. […] P, p-value.
Rat primary cortical neurons were co-transfected with a red fluorescent protein (RFP) as a morphological marker and either control (empty vector) or wild type TDP-43 expression plasmids and treated with vehicle (DMSO) or a titration of compound (4). […] The lifetime of each neuron was determined by either loss of RFP signal or morphological indicators of death such as loss of neurites and cell blebbing and used to generate cumulative hazard plots of risk of death over time (hrs) post-transfection. […] Hazard ratios for each treatment group (relative to TDP-43 DMSO group) were determined by cox regression analysis and used to generate forest plots. […]

In another assay the test system is TDP-43-expressing yeast. The assay is described as follows: Yeast TDP-43 model viability (resazurin-reduction endpoint). The following applies: 2-fold serial dilution applied for 24 hours. How it is done: (§2) (FIG. 1A) Structure of the Erg11 inhibitor and anti-fungal, fluconazole. […] A 2-fold serial dilution of fluconazole was applied to TDP-43-expressing yeast for 24 hours prior to analysis. (FIG. 1C) Wild-type yeast cultures were treated with fluconazole for eight hours prior to HPLC analysis for lanosterol and ergosterol. Data are expressed as the area under the curve (AUC) normalized to cell mass based on optical density of cultures at 600 nm.
The toxic gain of function features of TDP-43 can be faithfully recapitulated in the simple model organism, budding yeast, where the protein also localizes to stress granules. […] The yeast model thus provides a robust cell-based screening platform for small molecules capable of ameliorating toxicity. To validate compounds from such phenotypic screens, it is imperative to test compounds in a mammalian neuronal context. In an effort to develop TDP-43-related mammalian models of neuron loss that occurs in ALS and FTD, primary cultures of rat cortical neurons were transfected with human wild type or Q331K mutant TDP-43. These cells were compared to cells which received an empty expression vector control. […] In the experiments described in this example, this model system is used to interrogate new therapeutic approaches to ameliorate TDP-43 toxicity.
Fluconazole is an antifungal known to inhibit Erg11, the yeast lanosterol 14-alpha demethylase (FIG. 1B). […]
On the technique in general: The colour change of resazurin is a common sign of viable cells or microbes.

For the next assay, the system named is Erg11. Description: HPLC analysis for lanosterol and ergosterol in fluconazole-treated wild-type yeast cultures. The following applies: wild-type yeast cultures treated for eight hours, normalized to optical density at 600 nm. How it is done: as §2
Fluconazole is an antifungal known to inhibit Erg11, the yeast lanosterol 14-alpha demethylase (FIG. 1B). […] CYP51A1 has also been known as lanosterol 14-alpha demethylase, which describes its function in removing the 14-alpha-methyl group from lanosterol to generate 4,4-dimethylcholesta-8(9),14,24-trien-3β-ol, which is a critical step in the cholesterol biosynthetic pathway.

Assay [2] deals with primary rat cortical neurons transfected with Q331K Mutant TDP-43. The assay is described as follows: Survival of primary rat cortical neurons transfected with Q331K mutant TDP-43. To be noted: rat primary cortical neurons co-transfected with RFP and Q331K mutant TDP-43; titration of compound; cox regression. The procedure: as §1, with “Q331K mutant” for “wild-type”, “4A)” for “3A)”, “4B)” for “3B)”
The toxic gain of function features of TDP-43 can be faithfully recapitulated in the simple model organism, budding yeast, where the protein also localizes to stress granules. […] The yeast model thus provides a robust cell-based screening platform for small molecules capable of ameliorating toxicity. To validate compounds from such phenotypic screens, it is imperative to test compounds in a mammalian neuronal context. In an effort to develop TDP-43-related mammalian models of neuron loss that occurs in ALS and FTD, primary cultures of rat cortical neurons were transfected with human wild type or Q331K mutant TDP-43. […]

Take `O=C(N[C@@H](Cc1ccc(F)cc1)C(=O)N1CCC(O)CC1)c1cc2cc(Cl)ccc2[nH]1` [compound (4)]: in assay [1], the “neuron survival (risk of neuron death, hazard ratio relative to TDP-43 DMSO group)” value was “promotes survival”.

Consider `OC(Cn1cncn1)(Cn1cncn1)c1ccc(F)cc1F` [Fluconazole], for which, in the assay on TDP-43-expressing yeast, the “viability of TDP-43-expressing yeast” value is “restored viability; also recorded: rescues viability”. In the assay with Erg11, the “ergosterol (AUC normalized to cell mass)” value is given as “reduces ergosterol” and the “lanosterol (AUC normalized to cell mass)” value is given as “increase in the Erg11 substrate, lanosterol”.

Take `CCCN(CCc1ccc(Cl)c(Cl)c1)CC(O)c1cccnc1` (stereo not drawn) [compound (3)]: the “neuron survival (risk of neuron death, hazard ratio relative to TDP-43 DMSO group)” value in assay [1] is “reduction in survival was partially alleviated; also recorded: promotes survival”; in assay [2], “promotes survival”.
